Results published in ChEMBL document CHEMBL4177637, “Proapoptotic modification of substituted isoindolinones as MDM2-p53 inhibitors” (2017).
Activity calls are given as the source filed them. The rule behind the calls is not given here.

How the values were obtained:
HCT-116 [1] = assay: Growth inhibition of human p53 knockdown HCT116 cells after 48 hrs by Hoechst 33258 staining based fluorescence assay; assay type: functional; conditions: HCT-116, 48 h
HCT-116 [2] = assay: Growth inhibition of human HCT116 cells harboring p53+/+ after 48 hrs by Hoechst 33258 staining based fluorescence assay; assay type: functional; conditions: HCT-116, 48 h
[3] = molecular target: Tumour suppressor p53/oncoprotein Mdm2 (Homo sapiens) (UniProt P04637+Q00987); assay: Inhibition of MDM2/p53 in human HCT116 cells at 10 uM after 24 hrs by Western blot method; assay type: cell-based
U2OS = assay: Induction of apoptosis in human U2OS cells at 10 uM after 24 hrs by Annexin V-FITC/propidium iodide based FACS analysis (Rvb= 0.1%); assay type: functional
HCT-116 [4] = assay: Selectivity ratio of GI50 for human p53 knockdown HCT116 cells to GI50 for human HCT116 cells harboring p53+/+; assay type: functional

Sequence of Tumour suppressor p53/oncoprotein Mdm2 (Homo sapiens) (P04637 whole entry, looked up): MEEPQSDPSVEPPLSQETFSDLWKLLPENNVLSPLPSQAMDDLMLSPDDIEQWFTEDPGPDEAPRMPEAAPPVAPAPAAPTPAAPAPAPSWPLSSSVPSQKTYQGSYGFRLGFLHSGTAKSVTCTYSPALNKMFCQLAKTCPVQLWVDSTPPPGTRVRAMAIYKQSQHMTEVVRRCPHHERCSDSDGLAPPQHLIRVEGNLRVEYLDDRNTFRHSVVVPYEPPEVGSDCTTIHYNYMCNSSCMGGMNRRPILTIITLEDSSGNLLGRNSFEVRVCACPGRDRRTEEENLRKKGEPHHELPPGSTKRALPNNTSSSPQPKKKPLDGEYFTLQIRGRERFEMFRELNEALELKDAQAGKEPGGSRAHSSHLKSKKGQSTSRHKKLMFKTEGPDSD
Sequence of Tumour suppressor p53/oncoprotein Mdm2 (Homo sapiens) (Q00987 whole entry, looked up): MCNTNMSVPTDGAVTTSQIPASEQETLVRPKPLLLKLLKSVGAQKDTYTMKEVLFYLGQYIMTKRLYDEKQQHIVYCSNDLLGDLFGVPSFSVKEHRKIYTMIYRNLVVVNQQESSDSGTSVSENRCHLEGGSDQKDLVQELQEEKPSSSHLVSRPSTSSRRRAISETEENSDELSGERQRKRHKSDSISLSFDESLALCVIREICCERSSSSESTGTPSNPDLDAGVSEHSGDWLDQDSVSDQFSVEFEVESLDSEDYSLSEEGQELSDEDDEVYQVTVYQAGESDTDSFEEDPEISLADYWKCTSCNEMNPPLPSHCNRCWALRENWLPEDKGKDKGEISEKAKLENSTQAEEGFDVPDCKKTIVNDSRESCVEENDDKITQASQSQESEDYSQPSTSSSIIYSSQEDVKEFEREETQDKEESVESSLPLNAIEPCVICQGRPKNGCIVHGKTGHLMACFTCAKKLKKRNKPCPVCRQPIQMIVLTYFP

CC(=O)OCCCOC1(c2ccc(Cl)cc2)c2ccccc2C(=O)N1Cc1ccc(Cl)cc1 (stereo not given)
GI50 (HCT-116 [1]): 68 µM | GI50 (HCT-116 [2]): 46 µM

CC(C)[C@H](N)C(=O)OCC(C)(C)COC1(c2ccc(Cl)cc2)c2ccccc2C(=O)N1Cc1ccc(Cl)cc1 (stereo not given in full)
GI50 (HCT-116 [1]): 40 µM | GI50 (HCT-116 [2]): 11 µM

CC(C)(COC(=O)[C@@H](N)c1ccccc1)COC1(c2ccc(Cl)cc2)c2ccccc2C(=O)N1Cc1ccccc1 (stereo not given in full)
GI50 (HCT-116 [1]): 44 µM | GI50 (HCT-116 [2]): 15 µM

CC(C)(COC(=O)[C@@H](N)c1ccccc1)COC1(c2ccc(Cl)cc2)c2ccccc2C(=O)N1Cc1ccc(Cl)cc1 (stereo not given in full)
GI50 (HCT-116 [1]): 38 µM | inhibition [3]: Active | Activity (U2OS): 33.1% | RatioGI50 (HCT-116 [4]): <=4.75 | GI50 (HCT-116 [2]): 8 µM

O=C1c2ccccc2C(OCCCO)(c2ccc(Cl)cc2)N1Cc1ccccc1 (stereo not given)
GI50 (HCT-116 [1]): 90 µM | GI50 (HCT-116 [2]): 79 µM

CC(C)(CO)COC1(c2ccc(Cl)cc2)c2ccccc2C(=O)N1Cc1ccccc1 (stereo not given)
GI50 (HCT-116 [1]): 82 µM | GI50 (HCT-116 [2]): 71 µM

CC(=O)OCCCOC1(c2ccc(Cl)cc2)c2ccccc2C(=O)N1Cc1ccccc1 (stereo not given)
GI50 (HCT-116 [1]): 80 µM | GI50 (HCT-116 [2]): 50 µM

N[C@H](C(=O)OCCCOC1(c2ccc(Cl)cc2)c2ccccc2C(=O)N1Cc1ccccc1)c1ccccc1 (stereo not given in full)
GI50 (HCT-116 [1]): 43 µM | GI50 (HCT-116 [2]): 14 µM

CC(=O)OCC(C)(C)COC1(c2ccc(Cl)cc2)c2ccccc2C(=O)N1Cc1ccccc1 (stereo not given)
GI50 (HCT-116 [1]): 70 µM | GI50 (HCT-116 [2]): 38 µM

COc1ccc(C2=N[C@@H](c3ccc(Cl)cc3)[C@@H](c3ccc(Cl)cc3)N2C(=O)N2CCNC(=O)C2)c(OC(C)C)c1 [NUTLIN-3]
GI50 (HCT-116 [1]): 27 µM | Activity (U2OS): 31% | GI50 (HCT-116 [2]): 8 µM

CC(C)[C@H](N)C(=O)OCCCOC1(c2ccc(Cl)cc2)c2ccccc2C(=O)N1Cc1ccc(Cl)cc1 (stereo not given in full)
GI50 (HCT-116 [1]): 60 µM | GI50 (HCT-116 [2]): 16 µM

CC(C)[C@H](N)C(=O)OCCCOC1(c2ccc(Cl)cc2)c2ccccc2C(=O)N1Cc1ccccc1 (stereo not given in full)
GI50 (HCT-116 [1]): 65 µM | GI50 (HCT-116 [2]): 20 µM

CC(C)[C@H](N)C(=O)OCC(C)(C)COC1(c2ccc(Cl)cc2)c2ccccc2C(=O)N1Cc1ccccc1 (stereo not given in full)
GI50 (HCT-116 [1]): 65 µM | GI50 (HCT-116 [2]): 20 µM

N[C@H](C(=O)OCCCOC1(c2ccc(Cl)cc2)c2ccccc2C(=O)N1Cc1ccc(Cl)cc1)c1ccccc1 (stereo not given in full)
GI50 (HCT-116 [1]): 45 µM | GI50 (HCT-116 [2]): 12 µM

O=C1c2ccccc2C(OCCCO)(c2ccc(Cl)cc2)N1Cc1ccc(Cl)cc1 (stereo not given)
GI50 (HCT-116 [1]): 68 µM | GI50 (HCT-116 [2]): 60 µM

CC(=O)OCC(C)(C)COC1(c2ccc(Cl)cc2)c2ccccc2C(=O)N1Cc1ccc(Cl)cc1 (stereo not given)
GI50 (HCT-116 [1]): 70 µM | GI50 (HCT-116 [2]): 35 µM

CC(C)(CO)COC1(c2ccc(Cl)cc2)c2ccccc2C(=O)N1Cc1ccc(Cl)cc1 (stereo not given)
GI50 (HCT-116 [1]): 65 µM | inhibition [3]: Active | Activity (U2OS): 2% | GI50 (HCT-116 [2]): 50 µM
